Test results taken from PubChem BioAssay (NCI).
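Step 1: Grow cells in 96-well plates. Step 2: Expose to compound for 48 hours at 5 concentrations. Step 3: Interpolate endpoints linearly; if unreached, use highest concentration. At the GI50, growth is halved. At the TGI there is no net growth.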

Key:
Assay in all cases: NCI-60 cell line screen, 48 h
[1] = system: OVCAR-3 ovarian
[2] = system: SF-539 CNS
[3] = system: SF-268 CNS
[4] = system: EKVX NSCLC
[5] = system: TK-10 renal
[6] = system: RXF 393 renal
[7] = system: SF-295 CNS
[8] = system: SN12C renal
[9] = system: ACHN renal
[10] = system: NCI/ADR-RES ovarian

Compound: CC1(Cl)C(=O)NC(=O)N([C@H]2C[C@H](O)[C@@H](CO)O2)C1N=[N+]=[N-] (stereo not given in full)
- TGI [1]: > 100 µM
- TGI [2]: > 100 µM
- TGI [3]: > 100 µM
- TGI [4]: > 100 µM
- TGI [5]: > 100 µM
- TGI [6]: > 100 µM
- TGI [7]: > 100 µM
- TGI [8]: > 100 µM
- TGI [9]: > 100 µM

Compound: CC(=O)OC1(Sc2ccccc2)CC2[C@H]3COC(C)(C)O[C@H]3CC[C@@]2(C)CC1=O (stereo not given in full)
- TGI [1]: > 100 µM
- TGI [2]: 95.9 µM
- TGI [4]: > 100 µM
- TGI [5]: > 100 µM
- TGI [6]: > 100 µM
- TGI [7]: > 100 µM
- TGI [8]: > 100 µM
- TGI [9]: > 100 µM

Compound: CN(C)CCNC(=O)c1ccc2c(c1)oc1cc3ccccc3c(=O)n12
- GI50 [1]: 13.2 µM
- TGI [1]: 30.4 µM
- GI50 [3]: 15.4 µM
- TGI [3]: 31.7 µM
- GI50 [10]: 18.6 µM
- TGI [10]: 34.5 µM
- GI50 [4]: 18.1 µM
- TGI [4]: 36.6 µM
- GI50 [5]: 12.9 µM
- TGI [5]: 31.4 µM
- GI50 [6]: 19.6 µM
- TGI [6]: 36.6 µM
- GI50 [7]: 14.2 µM
- TGI [7]: 32.5 µM
- GI50 [8]: 15.4 µM
- TGI [8]: 30.6 µM
- GI50 [9]: 12.5 µM
- TGI [9]: 26 µM

Compound: CC(C)(C)C1=CC(=N/N=c2\scc(-c3ccccc3)n2Cc2ccccc2)C=C(C(C)(C)C)C1=O
- TGI [1]: > 100 µM
- TGI [2]: > 100 µM
- TGI [3]: > 100 µM
- TGI [4]: > 100 µM
- TGI [6]: > 100 µM
- TGI [7]: > 100 µM
- TGI [8]: > 100 µM
- TGI [9]: > 100 µM

Compound: O=C(NCCCN1CCN(CCCNC(=O)c2cccc3ccccc23)CC1)c1cccc2ccccc12
- TGI [1]: > 100 µM
- TGI [2]: > 100 µM
- TGI [4]: > 100 µM
- TGI [5]: > 100 µM
- TGI [7]: > 100 µM
- TGI [8]: > 100 µM
- TGI [9]: > 100 µM

Compound: N.N.N.N.N#N.N#N.[Cl-].[Os+6]
- GI50 [1]: > 100 µM
- TGI [1]: > 100 µM
- GI50 [2]: > 100 µM
- TGI [2]: > 100 µM
- GI50 [3]: > 100 µM
- TGI [3]: > 100 µM
- GI50 [4]: > 100 µM
- TGI [4]: > 100 µM
- GI50 [5]: > 100 µM
- TGI [5]: > 100 µM
- GI50 [6]: > 100 µM
- TGI [6]: > 100 µM
- GI50 [7]: > 100 µM
- TGI [7]: > 100 µM
- GI50 [8]: > 100 µM
- TGI [8]: > 100 µM

Compound: S=C1SCC2CCCN12 (stereo not given)
- TGI [2]: > 100 µM
- TGI [3]: > 100 µM
- TGI [5]: > 100 µM
- TGI [6]: > 100 µM
- TGI [7]: > 100 µM
- TGI [8]: > 100 µM
- TGI [9]: > 100 µM

Compound: O=C(c1ccccc1)c1nc2c(Cl)ccc(Cl)c2cc1C(Br)Br
- TGI [1]: 3.15 µM
- TGI [2]: 1.76 µM
- TGI [3]: 2.96 µM
- TGI [5]: 2.81 µM
- TGI [6]: 4.05 µM
- TGI [7]: 2.6 µM
- TGI [9]: 1.52 µM

Compound: Nc1[nH]nc(Nc2ccccc2)c1-c1nc2ccccc2s1
- GI50 [1]: 1.7 µM
- TGI [1]: 3.76 µM
- GI50 [2]: 1.68 µM
- TGI [2]: 3.34 µM
- GI50 [3]: 2.36 µM
- TGI [3]: 8.83 µM
- GI50 [10]: 2.11 µM
- TGI [10]: 6.64 µM
- GI50 [4]: 1.26 µM
- TGI [4]: 4.28 µM
- GI50 [5]: 3.02 µM
- TGI [5]: 9.1 µM
- GI50 [7]: 1.56 µM
- TGI [7]: 3.27 µM
- GI50 [8]: 1.58 µM
- TGI [8]: 3.24 µM
- GI50 [9]: 2.08 µM
- TGI [9]: 6.27 µM

Compound: O=C1OC(c2ccc([N+](=O)[O-])cc2)=N/C1=C\c1ccc(Cl)cc1
- TGI [1]: > 100 µM
- TGI [2]: > 100 µM
- TGI [3]: > 100 µM
- TGI [4]: > 100 µM
- TGI [5]: > 100 µM
- TGI [6]: > 100 µM
- TGI [7]: > 100 µM
- TGI [8]: > 100 µM
- TGI [9]: > 100 µM

Compound: COCN1COCN(C)C1=O
- TGI [1]: > 100 µM
- TGI [2]: > 100 µM
- TGI [3]: > 100 µM
- TGI [4]: > 100 µM
- TGI [5]: > 100 µM
- TGI [7]: > 100 µM
- TGI [8]: > 100 µM
- TGI [9]: > 100 µM

Compound: COc1ccc(Cn2cc3c(c2-c2ccccc2)CCc2cnoc2-3)cc1
- GI50 [1]: 0.137 µM
- TGI [1]: 0.509 µM
- GI50 [2]: 0.149 µM
- TGI [2]: 0.49 µM
- GI50 [3]: 0.488 µM
- TGI [3]: > 100 µM
- GI50 [10]: 0.0462 µM
- TGI [10]: 11.9 µM
- GI50 [4]: 0.425 µM
- TGI [4]: > 100 µM
- GI50 [5]: > 34.5 µM
- TGI [5]: > 100 µM
- GI50 [7]: 0.0652 µM
- TGI [7]: > 100 µM
- GI50 [8]: 0.545 µM
- TGI [8]: > 100 µM
- GI50 [9]: 0.215 µM
- TGI [9]: > 100 µM

Compound: COc1ccc(/C=C\c2cc(OC)c(OC)c(OC)c2)cc1NC(=O)/C=C/c1ccc(OC)c(OC)c1
- GI50 [1]: 6.41 µM
- TGI [1]: > 100 µM
- GI50 [2]: 3.1 µM
- TGI [2]: 52.6 µM
- GI50 [3]: 7.29 µM
- TGI [3]: > 100 µM
- GI50 [10]: 0.949 µM
- TGI [10]: > 100 µM
- GI50 [4]: > 100 µM
- TGI [4]: > 100 µM
- GI50 [5]: > 100 µM
- TGI [5]: > 100 µM
- GI50 [8]: 5.43 µM
- TGI [8]: > 100 µM
- GI50 [9]: 5.25 µM
- TGI [9]: > 100 µM

Compound: O=C(CC1(O)C(=O)Nc2ccccc21)c1ccc(Cl)c(Cl)c1 (stereo not given)
- TGI [2]: > 100 µM
- TGI [3]: > 100 µM
- TGI [4]: > 100 µM
- TGI [6]: > 100 µM
- TGI [7]: > 100 µM
- TGI [8]: > 100 µM
- TGI [9]: > 100 µM

Compound: CC(C)(C)c1cc(C2c3cc4c(cc3OC(O)(CO)C2C(=O)O)OCO4)cc(C(C)(C)C)c1O (stereo not given) (tested in a mixture with another compound)
- TGI [1]: 18.9 µM
- TGI [2]: 25.8 µM
- TGI [4]: 50.5 µM
- TGI [5]: 45.4 µM
- TGI [6]: 29.4 µM
- TGI [7]: 30.3 µM
- TGI [8]: 31 µM
- TGI [9]: 28.2 µM

Compound: N#CN1CC[C@@H]2CC3(CCC2C1)OCCO3 (stereo not given in full)
- TGI [1]: > 100 µM
- TGI [2]: > 100 µM
- TGI [3]: > 100 µM
- TGI [4]: > 100 µM
- TGI [5]: > 100 µM
- TGI [6]: > 100 µM
- TGI [7]: > 100 µM
- TGI [8]: > 100 µM
- TGI [9]: > 100 µM

Compound: COc1ccc(C2=C(OC(C)=O)c3cccn3-c3ccc(Cl)cc3S2)cc1
- TGI [3]: > 10 µM
- TGI [4]: > 10 µM
- TGI [5]: > 10 µM
- TGI [6]: > 10 µM
- TGI [7]: > 10 µM
- TGI [8]: > 10 µM

Compound: COc1ccc(-c2nc(NC(=O)CS(=O)(=O)c3ccc(F)cc3)sc2C)cc1
- GI50 [1]: 15.7 µM
- TGI [1]: 39.9 µM
- GI50 [2]: 16.9 µM
- TGI [2]: 37.2 µM
- GI50 [3]: 28.7 µM
- TGI [3]: > 100 µM
- GI50 [10]: 17.4 µM
- TGI [10]: > 100 µM
- GI50 [5]: 28.9 µM
- TGI [5]: 81.2 µM
- GI50 [6]: 15.6 µM
- TGI [6]: 49.7 µM
- GI50 [7]: 18.8 µM
- TGI [7]: 50.1 µM
- GI50 [8]: 19 µM
- TGI [8]: 52.5 µM
- GI50 [9]: 30 µM
- TGI [9]: > 100 µM

Compound: CN(C)CCCNc1ccnc2c([N+](=O)[O-])cccc12
- TGI [1]: > 100 µM
- TGI [2]: 44.5 µM
- TGI [3]: 67.4 µM
- TGI [4]: 36 µM
- TGI [5]: > 100 µM
- TGI [7]: 42.2 µM
- TGI [8]: 28.8 µM
- TGI [9]: > 100 µM
